Data on ten molecules can be found in publication PMC4766629, “Biochemical and functional characterization of Plasmodium falciparum DNA polymerase δ” (Malaria Journal, 2016).

Experiment [1] concerns the target T1, PfPolδ-cat (Plasmodium falciparum, UniProt P30315).
T1 construct: The 3285-bp full-length PfPolδ-cat of P. falciparum K1 strain was successfully amplified and cloned; thioredoxin (N); His6 (C); made in house; host or cells: Escherichia coli LMG194
Description: DNA polymerase assay, inhibitory effects of compounds on PfPolδ-cat activity. It is filed as biochemical. The method, then: DNA polymerase activity was assayed using activated calf thymus DNA (CT-DNA) (Sigma-Aldrich, MA, USA) as substrate. DNA polymerase assay was conducted in a 50-μl reaction mixture containing 10 μg of activated CT-DNA, 20 mM potassium phosphate buffer pH 8, 10 mM MgCl2, 2 mM DTT, 10 μg BSA, 50 μM each of dGTP, dATP and dCTP, 1 μM dTTP, 2.5 μM [α-^32P]dTTP (800 Ci/mmol; PerkinElmer, MA, USA), and 42 nM PfPolδ-cat. After incubation for 1 h at 37 °C, the reactions were terminated by adding a 250-μl mixture of 20 mM EDTA, 0.1 mg/ml BSA and 100 μl of 50 % trichloroacetic acid (TCA), followed by sedimentation. The precipitate was then washed twice with 1 % TCA and [^32P]dTMP incorporation was measured in a 1450 MicroBeta® Trilux Liquid Scintillation Counter (Perkin Elmer). One unit of DNA polymerase activity is defined as the amount of enzyme that catalyzes the incorporation of 1 nmol of dTMP into DNA in 1 h at 37 °C.
Inhibitory activity of 11 compounds consisting of substrate and nucleotide analogs and potential active site occupiers of PfPolδ-cat were compared with known Pol δ inhibitors, aphidicolin and N-ethylmaleimide (NEM). Stock solution (6 mM) of aphidicolin was prepared in dimethylsulfoxide (DMSO) and that of NEM (400 mM) in absolute ethanol. Stock solutions (10 mM) of N^2-(4-butylphenyl)-2′-deoxyguanosine 5′-triphosphate (BuPdGTP), N^2-(4-butylphenyl)- 2′-deoxyguanosine 5′-(P^2,P^3-carbonyltriphosphonate) (BuPdGMPPCOP), N^2-ethyl-2′-deoxyguanosine 5′-[…] (EtdGTP), N^2-hexyl-2′-deoxyguanosine 5′-triphosphate (HexdGTP) and Acyclovir triphosphate (ACV-TP) were prepared in sterile distilled water, while those of 2-amino-4-chloro-6-(3,4-dichloroanilino)pyrimidine, 2-amino-4-chloro-6-(3,5-dichloroanilino)pyrimidine, N^2-(3,4-dichlorobenzyl)guanine (DCBG), N^2-(3-fluoro,4-chlorobenzyl)guanine, 3-(4-hydroxybutyl)-6-(3-ethyl-4-methylanilino)uracil (HB-EMAU), and 7-acetoxypentyl-(3,4-dichlorobenzyl)guanine (7-acetoxypentyl-DCBG) were prepared in DMSO. All stock solutions were stored at −20 °C until used. Test concentrations of compounds were prepared by diluting stock solution with 10 mM Tris–HCl pH 8.0 and evaluated in triplicate. Compounds were added directly to the reaction mixtures except for NEM that was pre-incubated with enzyme for 30 min on ice before addition to the reaction mixture. Polymerase activity assays were conducted as described above.

Experiment [2] has as its system Plasmodium falciparum K1 strain. Description: Inhibition of intra-erythrocytic P. falciparum growth in culture (SYBR Green I-based assay). It is filed as cell-based. The settings on record: K1 strain (chloroquine- and pyrimethamine-resistant), in vitro growth, triplicate. The method, then: Plasmodium falciparum strain K1, a chloroquine- and pyrimethamine-resistant strain from Thailand [28] was cultivated in RPMI 1640 medium (Invitrogen™, CA, USA) supplemented with 10 % human serum and human red blood cell (RBC) at 37 °C under an atmosphere of 5 % CO2. Plasmodium falciparum cultures containing mostly trophozoite and schizont stages were harvested when parasitaemia was >10 % by centrifugation at 500×g for 10 min at 25 °C.
Plasmodium falciparum K1 strain was synchronized at ring stage using 5 % D-sorbitol treatment and then mixed with culture medium containing RPMI 1640 medium supplement with 10 % human serum. Twofold serial dilutions of each test compound were evaluated in triplicate. Parasite growth was determined by a SYBR Green I-based assay. Dose–response curves and IC50 values were obtained using SigmaPlot 12.0.

On the set-up of experiment [3]: method as in PMID 21684746. The settings on record: IP dose of 60 mg/kg; cited from earlier work.
On the set-up of experiment [4]: method as in PMID 21684746. The settings on record: potent antibiotic; cited from earlier work.
The mark [5] stands for this setting: recombinant PfPolδ-cat DNA polymerase activity, activated CT-DNA, 1 h at 37 °C, triplicate, read-out: IC50 PfPolδ-cat.

≈ marks a conversion by molar mass, not a printed value. Where two headings read alike, the source gives them in different places.

T1 sequence (P30315 whole entry): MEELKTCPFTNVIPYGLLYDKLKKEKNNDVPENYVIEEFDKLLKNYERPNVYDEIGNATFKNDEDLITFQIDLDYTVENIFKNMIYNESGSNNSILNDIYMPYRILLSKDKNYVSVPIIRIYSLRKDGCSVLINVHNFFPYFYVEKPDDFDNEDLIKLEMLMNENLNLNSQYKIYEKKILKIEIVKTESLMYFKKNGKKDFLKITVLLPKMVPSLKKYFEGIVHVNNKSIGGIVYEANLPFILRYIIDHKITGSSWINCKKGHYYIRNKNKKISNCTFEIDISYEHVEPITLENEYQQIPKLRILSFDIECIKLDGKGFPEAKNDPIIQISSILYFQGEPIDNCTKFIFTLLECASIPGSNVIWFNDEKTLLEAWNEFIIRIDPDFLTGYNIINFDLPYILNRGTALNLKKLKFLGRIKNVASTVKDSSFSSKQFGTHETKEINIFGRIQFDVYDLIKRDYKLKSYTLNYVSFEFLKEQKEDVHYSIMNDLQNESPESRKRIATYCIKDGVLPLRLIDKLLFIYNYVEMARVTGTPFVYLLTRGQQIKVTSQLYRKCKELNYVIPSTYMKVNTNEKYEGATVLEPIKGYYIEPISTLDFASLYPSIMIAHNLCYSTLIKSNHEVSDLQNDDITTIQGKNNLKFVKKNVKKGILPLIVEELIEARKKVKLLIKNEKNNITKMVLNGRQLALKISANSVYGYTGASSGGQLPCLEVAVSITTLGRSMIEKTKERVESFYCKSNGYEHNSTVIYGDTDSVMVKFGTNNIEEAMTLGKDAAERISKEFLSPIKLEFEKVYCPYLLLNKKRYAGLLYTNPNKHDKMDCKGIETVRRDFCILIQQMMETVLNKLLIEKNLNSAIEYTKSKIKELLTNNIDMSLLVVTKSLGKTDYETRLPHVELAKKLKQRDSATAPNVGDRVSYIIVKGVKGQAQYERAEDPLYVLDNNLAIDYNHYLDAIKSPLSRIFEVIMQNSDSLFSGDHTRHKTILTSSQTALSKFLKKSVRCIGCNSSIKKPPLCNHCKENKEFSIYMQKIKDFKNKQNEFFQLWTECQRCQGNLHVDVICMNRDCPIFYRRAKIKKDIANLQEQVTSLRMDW

Turning to `Nc1nc(Cl)cc(Nc2ccc(Cl)c(Cl)c2)n1` [2-amino-4-chloro-6-(3′,4′-dichloroanilino)pyrimidine], the values for the IC50 in experiment [1] (setting [5]) and in experiment [2] (Plasmodium falciparum) were 104 ± 5.6 µM and 3.8 ± 0.3 µM, respectively. In the same order, the values of `Nc1nc(Cl)cc(Nc2cc(Cl)cc(Cl)c2)n1` [2-amino-4-chloro-6-(3′, 5′-dichloroanilino)pyrimidine] are 185 ± 7.7 µM and 34.4 ± 0.4 µM. Turning to `CC(=O)OCCCCCn1cnc2nc(NCc3ccc(Cl)c(Cl)c3)[nH]c(=O)c21` [7-acetoxypentyl-DCBG, 7-acetoxypentyl-(3,4-dichlorobenzyl)guanine], the figures for the IC50 in experiment [1] (setting [5]) and in experiment [2] were 55 ± 3.4 µM and 4.1 ± 0.2 µM, respectively. The “mice survived after treatment” value in experiment [3] is given as 80%. Moreover, the MIC (as a rule, the lowest concentration found to suppress growth) in experiment [4] is 1.25 µg/mL (≈ 2.85 µM). For `Nc1nc2c(ncn2COCCOP(=O)(O)OP(=O)(O)OP(=O)(O)O)c(=O)[nH]1` [Acyclovir triphosphate], half-maximal inhibition in experiment [2] (Plasmodium falciparum) (IC50) was put at 347 ± 8.3 µM.

Regarding `CCCCc1ccc(Nc2nc3c(ncn3C3CC(O)C(COP(=O)(O)OP(=O)(O)C(=O)P(=O)(O)O)O3)c(=O)[nH]2)cc1` (centres unmarked) [BuPdGMPPCOP, N^2-(4-butylphenyl)-2′-deoxyguanosine 5′-(P^2,P^3-carbonyltriphosphonate)], the “IC50 PfPolδ-cat (Inactive = <20 % inhibition at 100 μM)” value in experiment [1] (recombinant PfPolδ-cat DNA polymerase activity, 100 μM compound) is on record as “Inactive^a”. Further, the IC50 (as a rule, the point on the concentration scale where inhibition reaches its midpoint) in experiment [2] came to 173 ± 2.7 µM. In the case of `CCCCc1ccc(Nc2nc3c(ncn3[C@H]3C[C@H](O)[C@@H](COP(=O)(O)OP(=O)(O)OP(=O)(O)O)O3)c(=O)[nH]2)cc1` [BuPdGTP, N^2-(4-butylphenyl)-2′-deoxyguanosine 5′-triphosphate], the concentration for half-maximal inhibition (IC50) in experiment [1] (setting [5]) stood at 38 ± 1.7 µM; in experiment [2] (Plasmodium falciparum) it was 85.6 ± 3.7 µM. For `O=c1[nH]c(NCc2ccc(Cl)c(Cl)c2)nc2nc[nH]c12` [DCBG, N^2-(3,4-dichlorobenzyl)guanine], the half-inhibitory concentration (IC50) in experiment [2] (Plasmodium falciparum) amounted to 8.8 ± 0.5 µM. Molecule `CCCCCCNc1nc2c(ncn2[C@H]2C[C@H](O)[C@@H](COP(=O)(O)OP(=O)(O)OP(=O)(O)O)O2)c(=O)[nH]1` [HexdGTP, N^2-hexyl-2′-deoxyguanosine 5′-triphosphate] displayed an IC50 in experiment [2] (Plasmodium falciparum) of 86.4 ± 0.2 µM. For `O=c1[nH]c(NCc2ccc(Cl)c(F)c2)nc2nc[nH]c12` [N^2-(3-fluoro,4-chlorobenzyl)guanine], the IC50 in experiment [2] (Plasmodium falciparum) worked out at 7.4 ± 0.3 µM. As for `C[C@@]1(CO)[C@H](O)CC[C@@]2(C)[C@H]1CC[C@H]1C[C@@H]3C[C@@]12CC[C@]3(O)CO` [aphidicolin, reference compound], in experiment [1], the midpoint of inhibition, the IC50, lay at 11.8 µM.
